Biological target: T1, recombinant human renin (Homo sapiens, UniProt P00797)
T1 sequence (P00797 67-406): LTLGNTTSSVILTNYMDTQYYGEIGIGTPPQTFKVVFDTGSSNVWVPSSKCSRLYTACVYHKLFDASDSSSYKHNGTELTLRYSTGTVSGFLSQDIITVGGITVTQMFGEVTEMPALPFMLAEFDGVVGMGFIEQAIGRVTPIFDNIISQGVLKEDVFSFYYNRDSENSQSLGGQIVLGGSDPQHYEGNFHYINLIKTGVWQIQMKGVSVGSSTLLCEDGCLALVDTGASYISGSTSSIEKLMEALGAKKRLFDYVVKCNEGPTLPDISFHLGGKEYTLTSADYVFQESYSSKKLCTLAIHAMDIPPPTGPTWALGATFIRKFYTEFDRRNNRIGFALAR
Experiment: Primary renin inhibition assay: IC50 in buffer, 384 well MTP (AngI quantified by EIA)
Method: Enzyme Immuno Assay (EIA) to Estimate AngI Accumulation and Renin Inhibition
96 well MTP (MaxiSorp™, Nunc) were coated with 200 μl conjugate and blocked with 250 μl blocking solution as above, except that the blocking solution contained 3% BSA.
1.3 AngI-EIA in 384 well MTP
The AngI (1-10)/BSA coated MTP were washed 3 times with wash buffer (PBS 1×, 0.01% Tween 20) and filled with 75 μl of primary antibody solution (anti-AngI antiserum, pre-diluted 1:10 in horse serum), diluted to a final concentration of 1:100,000 in assay buffer (PBS 1×, 1 mM EDTA, 0.1% BSA, pH 7.4). 5 μl of the renin reaction (or standards in assay buffer) (see below) were added to the primary antibody solution and the plates were incubated overnight at 4° C. After the incubation the plates were washed 3 times with wash buffer and incubated with secondary antibody [anti-rabbit IgG, linked to horseradish peroxidase (Amersham Bioscience, NA 934V), diluted 1:2,000 in wash buffer] for 2 h at rt. […]
In the second step, the accumulated AngI is measured by an immunological assay (enzyme immuno assay, EIA). […]
Test compounds were dissolved and diluted in 100% DMSO and 2.5 μl added to the premix, then incubated at 37° C. for 3 h. At the end of the incubation period, 5 μl of the renin reaction (or standards in assay buffer) were transferred into EIA assays (as described above) and AngI produced by renin was quantified.

IC50 [nM] | SMILES
0.19 | O=C([C@@H]1[C@@H](c2ccc(CCCOc3c(F)ccc(F)c3Cl)cc2)C[C@@H]2CNC[C@H]1N2)N(Cc1cccc(Cl)c1Cl)C1CC1 (racemic) [Example 2, (rac.)-(1R*,5S*,6R*,7S*)-7-{4-[3-(2-Chloro-3,6-difluoro-phenoxy)-propyl]-phenyl}-3,9-diaza-bicyclo[3.3.1]nonane-6-carboxylic acid cyclopropyl-(2,3-dichloro-benzyl)-amide]
0.65 | O=C([C@H]1[C@H]2CNC[C@@H](C[C@H]1c1ccc(CCCOc3c(F)ccc(F)c3Cl)cc1)N2)N(Cc1cccc(Cl)c1Cl)C1CC1 (racemic) [Example 1, (rac.)-(1R*,5S*,6R*,7R*)-7-{4-[3-(2-Chloro-3,6-difluoro-phenoxy)-propyl]-phenyl}-3,9-diaza-bicyclo[3.3.1]nonane-6-carboxylic acid cyclopropyl-(2,3-dichloro-benzyl)-amide]
